Laboratory results from BindingDB's records for doi:10.1021/jm00051a006 (University of Alberta, 1995).

assay: Effective concentration in vitro against HIV-1-infected CEM cells relative to uninfected untreated controls

**Q.** For CCO[C@@H]1N(C2CC(N=[N+]=[N-])C(CO)O2)C(=O)NC(=O)[C@@]1(C)Br (stereo partly specified), which EC50 is on record?
**A.** 23.7 nM

**Q.** For CC1(Br)C(=O)NC(=O)N([C@H]2C[C@H](N=[N+]=[N-])[C@@H](CO)O2)C1N=[N+]=[N-] (stereo partly specified), which EC50 is on record?
**A.** 200000 nM

**Q.** Which EC50 does the source give for CC(C)O[C@H]1N(C2CC(N=[N+]=[N-])C(CO)O2)C(=O)NC(=O)[C@]1(C)Br (stereo partly specified) here?
**A.** 5720 nM

**Q.** With CO[C@H]1N(C2CC(N=[N+]=[N-])C(CO)O2)C(=O)NC(=O)[C@]1(C)Br (stereo partly specified) as the molecule, how does the EC50 read?
**A.** 3.27 nM

**Q.** Which EC50 does the source give for CCO[C@H]1N(C2CC(N=[N+]=[N-])C(CO)O2)C(=O)NC(=O)[C@]1(C)Br (stereo partly specified) here?
**A.** 6.75 nM

**Q.** For CO[C@@H]1N(C2CC(N=[N+]=[N-])C(CO)O2)C(=O)NC(=O)[C@@]1(C)I (stereo partly specified), which EC50 is on record?
**A.** 5.15 nM

**Q.** With CO[C@H]1N(C2CC(N=[N+]=[N-])C(CO)O2)C(=O)NC(=O)[C@]1(C)I (stereo partly specified) as the molecule, how does the EC50 read?
**A.** 3.17 nM

**Q.** With CO[C@H]1N([C@H]2C[C@H](N=[N+]=[N-])[C@@H](CO)O2)C(=O)NC(=O)C1(C)Cl (stereo partly specified) as the molecule, how does the EC50 read?
**A.** 5790 nM

**Q.** Which EC50 does the source give for CO[C@@H]1N(C2CC(N=[N+]=[N-])C(CO)O2)C(=O)NC(=O)[C@@]1(C)Br (stereo partly specified) here?
**A.** 280 nM

**Q.** For CCCCCCCCO[C@H]1N(C2CC(N=[N+]=[N-])C(CO)O2)C(=O)NC(=O)[C@]1(C)Br (stereo partly specified), which EC50 is on record?
**A.** 865 nM

**Q.** Which EC50 does the source give for CC1(Cl)C(=O)NC(=O)N([C@H]2C[C@H](N=[N+]=[N-])[C@@H](CO)O2)C1N=[N+]=[N-] (stereo partly specified) here?
**A.** 1490 nM
